The values that follow come from BindingDB's records for doi:10.1016/s0960-894x(00)00282-1 (Novartis Horsham Research Centre, 2000).

This experiment is described as follows: Compound was evaluated for its inhibitory activity against Serine protease chymotrypsin.

Compound `CC1CNc2c(cccc2S(=O)(=O)N[C@@H](Cc2nc3ccccc3s2)C(=O)N2CCC(CCO)CC2)C1` (stereo partly drawn) [3-Methyl-1,2,3,4-tetrahydro-quinoline-8-sulfonic acid {(S)-1-benzothiazol-2-ylmethyl-2-[4-(2-hydroxy-ethyl)-piperidin-1-yl]-2-oxo-ethyl}-amide] had an inhibitory constant (Ki) of 7.55 µM. Take `CCC1CCN(C(=O)C(Cc2nc3ccccc3s2)NS(=O)(=O)c2cccc3c2NCC(C)(C)C3)CC1` (configuration not stated) [MD805 Analogue]: the Ki came to 4.91 µM.

What is called Ki is the dissociation constant of the complex between target and ligand, obtained from inhibition or displacement. Higher therefore signals a looser hold on the target.
